Tests used:
Assay type in all cases: physicochemical
[1] = Hygroscopicity (moisture gain at relative humidity); parameters: Hygroscopy @ 85% RH: unit not given here; conditions: for moisture gain: at 85% relative humidity (RH); for Hygroscopy @ 85% RH: comparison table, Example 7
[2] = Loss on drying / initial water content; parameters: Initial water content: unit not given here; conditions: for Initial water content: comparison table, Example 7
[3] = Decomposition temperature; parameters: unit not given here; conditions: comparison table, Example 7
[4] = Known multiple solid forms; conditions: comparison table, Example 7
[5] = Stability in buffer solutions and in solid state

SMILES | hygroscopicity (in words) [1] | moisture gain [1] | Hygroscopy @ 85% RH [1] | Loss on drying (LOD) of a sample [2] | Initial water content [2] | Decomposition temperature [3] | Known Multiple forms [4] | solid-state stability [5] | stability in buffer solutions ([5]; many buffer solutions, various pH values)
Cc1ccc(-c2ccc(O[C@H]3CN4CCC3CC4)cn2)cc1.O=P(O)(O)O [Form A of the mono-phosphate salt, mono-phosphate salt of (R)-3-(6-(4-methylphenyl)-pyridin-3-yloxy)-1-aza-bicyclo[2.2.2]octane] | slightly hygroscopic | 0.2% | 0.2 | about 0.5% | ~0.5 | 222 | Yes | – | –
Cc1ccc(-c2ccc(O[C@H]3CN4CCC3CC4)cn2)cc1.O=C(O)CCC(=O)O [Form A of the mono-succinate salt, mono-succinate salt of (R)-3-(6-(4-methylphenyl)-pyridin-3-yloxy)-1-aza-bicyclo[2.2.2]octane] | – | 0.3% | 0.3 | about 4.5% | ~4.5 | 222 | Yes | – | –
Cc1ccc(-c2ccc(O[C@H]3CN4CCC3CC4)cn2)cc1.Cl [mono-hydrochloride salt, mono-hydrochloride salt of (R)-3-(6-(4-methylphenyl)-pyridin-3-yloxy)-1-aza-bicyclo[2.2.2]octane] | hygroscopic | about 5% | ~5 | about 5% | ~5 | 262 | Yes | – | –
Cc1ccc(-c2ccc(O[C@H]3CN4CCC3CC4)cn2)cc1.O=C(O)/C=C\C(=O)O [mono-maleate salt, mono-maleate salt of (R)-3-(6-(4-methylphenyl)-pyridin-3-yloxy)-1-aza-bicyclo[2.2.2]octane] | slightly hygroscopic | 0.3% | 0.3 | < 0.03% | <0.1 | 207 | No | good | good stability
Cc1ccc(-c2ccc(O[C@H]3CN4CCC3CC4)cn2)cc1.O=C(O)CC(=O)O [mono-malonate salt, mono-malonate salt of (R)-3-(6-(4-methylphenyl)-pyridin-3-yloxy)-1-aza-bicyclo[2.2.2]octane] | slightly hygroscopic | 1.3% | 1.3 | 0% | ~0 | 148 | No | – | –
